Reference: US9814704B2, “Substituted pyrrolo[2,3-b]pyridines as MLK inhibitors” (The University of Rochester, priority 2008, dated 2017)
Counter-ions that a name gives are not always drawn. Like-named read-outs stand apart in the source and are kept apart here.

Biological target: MLK3 (Homo sapiens (Human), UniProt Q16584)
Assay: Radiometric Filter Plate MLK3 Assay
Format: biochemical
Conditions: read-out: MK3 IC50
Experimental: Radiometric Filter Plate MLK3 Assay
After a twenty minute incubation, the reactions were washed through filter plates and read on a scintillation counter. Results are shown in Table 4 below, in which +++ indicates ≦0.1 μM, ++ indicates >0.1 μM and ≦1 μM, and + indicates >1 μM.

[1] = 200 ng (130 nM) MLK3, 1 μM inactive MKK7b, 2 μM cold ATP (Km), 33P ATP, twenty minute incubation

Sequence of MLK3 (Q16584 whole entry): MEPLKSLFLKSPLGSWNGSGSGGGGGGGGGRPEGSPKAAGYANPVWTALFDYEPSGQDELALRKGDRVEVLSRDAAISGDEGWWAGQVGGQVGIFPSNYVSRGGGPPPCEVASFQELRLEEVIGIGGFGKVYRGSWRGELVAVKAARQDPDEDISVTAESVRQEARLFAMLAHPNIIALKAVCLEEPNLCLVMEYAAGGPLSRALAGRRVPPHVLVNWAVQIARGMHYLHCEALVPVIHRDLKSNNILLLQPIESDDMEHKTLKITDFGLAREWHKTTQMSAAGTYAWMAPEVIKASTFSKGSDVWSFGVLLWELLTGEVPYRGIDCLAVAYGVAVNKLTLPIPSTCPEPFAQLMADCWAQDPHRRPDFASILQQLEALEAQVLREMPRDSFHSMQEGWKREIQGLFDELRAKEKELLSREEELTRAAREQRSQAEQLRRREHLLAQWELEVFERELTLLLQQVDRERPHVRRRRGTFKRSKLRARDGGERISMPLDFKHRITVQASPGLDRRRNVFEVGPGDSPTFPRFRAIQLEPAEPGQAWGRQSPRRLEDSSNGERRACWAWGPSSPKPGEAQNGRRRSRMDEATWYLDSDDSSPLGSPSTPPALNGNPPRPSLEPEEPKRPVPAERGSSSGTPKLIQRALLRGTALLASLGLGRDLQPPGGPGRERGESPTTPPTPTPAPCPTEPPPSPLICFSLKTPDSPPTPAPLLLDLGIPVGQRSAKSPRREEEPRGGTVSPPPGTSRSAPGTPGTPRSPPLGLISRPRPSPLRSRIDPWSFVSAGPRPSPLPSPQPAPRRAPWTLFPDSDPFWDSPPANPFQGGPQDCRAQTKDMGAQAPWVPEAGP

SMILES | IC50 [1] | IC50
COc1cc(-c2cnc3[nH]cc(-c4ccc5[nH]ccc5c4)c3c2)ccc1N [Example 5, 4-(3-(1H-indol-5-yl)-1H-pyrrolo[2,3-b]pyridin-5-yl)-2-methoxyaniline] | < 100 nM | –
COc1cc(-c2cnc3[nH]c(=O)n(-c4ccc5[nH]ccc5c4)c3n2)ccc1O [Example 55, 6-(4-hydroxy-3-methoxyphenyl)-1-(1H-indol-5-yl)-1H-imidazo[4,5-b]pyrazin-2(3H)-one] | < 100 nM | –
Cc1cc(C)cc(-c2cnc3[nH]c(=O)n(-c4ccc5scnc5c4)c3n2)c1 [Example 99, 1-(benzo[d]thiazol-5-yl)-6-(3,5-dimethylphenyl)-1H-imidazo[4,5-b]pyrazin-2(3H)-one] | > 1000 nM | –
COc1cc(-c2cnc3[nH]c(=O)n(C4Cc5ccccc5C4)c3n2)cc(OC)c1OC [Example 110, 1-(2,3-dihydro-1H-inden-2-yl)-6-(3,4,5-trimethoxyphenyl)-1H-imidazo[4,5-b]pyrazin-2(3H)-one] | < 100 nM | –
Cc1cc(C)cc(-c2cnc3[nH]c(=O)n(-c4ccc5[nH]ccc5c4)c3n2)c1 [Example 46, 6-(3,5-dimethylphenyl)-1-(1H-indol-5-yl)-1H-imidazo[4,5-b]pyrazin-2(3H)-one] | > 1000 nM | –
CN1CCN(Cc2ccc(-c3cnc4[nH]cc(-c5ccc(C(N)=O)cc5)c4c3)cc2)CC1 [Example 155, 4-{5-[4-(4-methyl-piperazin-1-ylmethyl)-phenyl]-1H-pyrrolo[2,3-b]pyridin-3-yl}-benzamide] | – | 100 to 1000 nM
COc1cc(-c2cnc3[nH]cc(-c4ccc(-c5ncc[nH]5)cc4)c3c2)cc(OC)c1OC [Example 167, 3-[4-(1H-imidazol-2-yl)-phenyl]-5-(3,4,5-trimethoxy-phenyl)-1H-pyrrolo[2,3-b]pyridine] | – | 100 to 1000 nM
COc1cc(-c2cnc3[nH]c(=O)n(-c4ccc5[nH]ccc5c4)c3n2)cc(OC)c1OC [Example 40, 1-(1H-indol-5-yl)-6-(3,4,5-trimethoxyphenyl)-1H-imidazo[4,5-b]pyrazin-2(3H)-one] | < 100 nM | –
COc1cc(-c2cnc3[nH]c(=O)n(-c4ccc5[nH]cnc5c4)c3n2)cc(OC)c1OC [Example 102, 1-(1H-benzo[d]imidazol-5-yl)-6-(3,4,5-trimethoxyphenyl)-1H-imidazo[4,5-b]pyrazin-2(3H)-one] | < 100 nM | –
CN1CCN(c2cc(-c3cnc4[nH]cc(-c5ccc6[nH]ccc6c5)c4c3)ccn2)CC1 [Example 7, 3-(1H-indol-5-yl)-5-(2-(4-methylpiperazin-1-yl)pyridin-4-yl)-1H-pyrrolo[2,3-b]pyridine] | < 100 nM | –
NC(=O)c1ccc(-c2c[nH]c3ncc(-c4ccc(C(=O)N5CCNCC5)cc4)cc23)cc1 [Example 149, 4-{5-[4-(piperazine-1-carbonyl)-phenyl]-1H-pyrrolo[2,3-b]pyridin-3-yl}-benzamide, hydrochloride salt] | < 100 nM | –
COc1ccc(-c2cnc3[nH]c(=O)n(CC4CC4)c3n2)cc1OC [Example 79, 1-(cyclopropylmethyl)-6-(3,4-dimethoxyphenyl)-1H-imidazo[4,5-b]pyrazin-2(3H)-one] | – | 100 to 1000 nM
COc1cc(-c2cnc3[nH]cc(-c4ccc(N)cc4)c3c2)cc(OC)c1OC [Example 15, 4-(5-(3,4,5-trimethoxyphenyl)-1H-pyrrolo[2,3-b]pyridin-3-yl)aniline] | < 100 nM | –
O=c1[nH]c2ncc(-c3cc(F)c(O)cc3F)nc2n1-c1ccc2[nH]ccc2c1 [Example 58, 6-(2,5-difluoro-4-hydroxyphenyl)-1-(1H-indol-5-yl)-1H-imidazo[4,5-b]pyrazin-2(3H)-one] | – | 100 to 1000 nM
O=c1[nH]c2ncc(-c3ccc(N4CCOCC4)cc3)nc2n1-c1ccc2[nH]ncc2c1 [Example 89, 1-(1H-indazol-5-yl)-6-(4-morpholinophenyl)-1H-imidazo[4,5-b]pyrazin-2(3H)-one] | > 1000 nM | –
Nc1ncc(-c2cnc3[nH]cc(-c4cnc(N)nc4)c3c2)cn1 [Example 20, 5,5′-(1H-pyrrolo[2,3-b]pyridine-3,5-diyl)dipyrimidin-2-amine] | > 1000 nM | –
COc1ccc(-c2cnc3[nH]c(=O)n(-c4ccc5[nH]ncc5c4)c3n2)cc1OC [Example 87, 6-(3,4-dimethoxyphenyl)-1-(1H-indazol-5-yl)-1H-imidazo[4,5-b]pyrazin-2(3H)-one] | > 1000 nM | –
CC(C)(C)OC(=O)N1CCN(Cc2ccc(-c3cnc4[nH]cc(-c5ccc6[nH]ccc6c5)c4c3)cc2)CC1 [Example 144, 4-{4-[3-(1H-indol-5-yl)-1H-pyrrolo[2,3-b]pyridin-5-yl]-benzyl}-piperazine-1-carboxylic acid tert-butyl ester] | < 100 nM | –
COc1cc(OC)cc(-c2cnc3[nH]c(=O)n(-c4ccc5[nH]ccc5c4)c3n2)c1 [Example 65, 6-(3,5-dimethoxyphenyl)-1-(1H-indol-5-yl)-1H-imidazo[4,5-b]pyrazin-2(3H)-one] | > 1000 nM | –
COc1cc(-c2cnc3[nH]c(=O)n(-c4ccc5scnc5c4)c3n2)cc(OC)c1OC [Example 96, 1-(benzo[d]thiazol-5-yl)-6-(3,4,5-trimethoxyphenyl)-1H-imidazo[4,5-b]pyrazin-2(3H)-one] | – | 100 to 1000 nM

SMILES | IC50 [1] | IC50
Cc1cc2cc(-n3c(=O)[nH]c4ncc(-c5cc(Cl)cc(Cl)c5)nc43)ccc2[nH]1 [Example 73, 6-(3,5-dichlorophenyl)-1-(2-methyl-1H-indol-5-yl)-1H-imidazo[4,5-b]pyrazin-2(3H)-one] | > 1000 nM | –
c1cc2cc(-c3cnc4[nH]cc(-c5ccc6[nH]ccc6c5)c4c3)ccc2[nH]1 [Example 12, 3,5-di(1H-indol-5-yl)-1H-pyrrolo[2,3-b]pyridine] | – | 100 to 1000 nM
COc1cc(-c2cnc3[nH]c(=O)n(-c4ccc(O)cc4)c3n2)cc(OC)c1OC [Example 114, 1-(4-hydroxyphenyl)-6-(3,4,5-trimethoxyphenyl)-1H-imidazo[4,5-b]pyrazin-2(3H)-one] | – | 100 to 1000 nM
c1cc2cc(-c3c[nH]c4ncc(-c5ccc(N6CCNCC6)nc5)cc34)ccc2[nH]1 [Example 10, 3-(1H-indol-5-yl)-5-(6-(piperazin-1-yl)pyridin-3-yl)-1H-pyrrolo[2,3-b]pyridine] | – | 100 to 1000 nM
CN1CCN(Cc2cccc(-c3cnc4[nH]cc(-c5ccc(C(N)=O)cc5)c4c3)c2)CC1 [Example 156, 4-{5-[3-(4-methyl-piperazin-1-ylmethyl)-phenyl]-1H-pyrrolo[2,3-b]pyridin-3-yl}-benzamide] | < 100 nM | –
COc1ccc(-c2cnc3[nH]c(=O)n(-c4ccc5[nH]ccc5c4)c3n2)cc1OC [Example 47, 6-(3,4-dimethoxyphenyl)-1-(1H-indol-5-yl)-1H-imidazo[4,5-b]pyrazin-2(3H)-one] | – | 100 to 1000 nM
Cc1cc(C)cc(-c2cnc3[nH]c(=O)n(-c4ccc5c(ccn5C)c4)c3n2)c1 [Example 43, 6-(3,5-dimethylphenyl)-1-(1-methyl-1H-indol-5-yl)-1H-imidazo[4,5-b]pyrazin-2(3H)-one] | > 1000 nM | –
COc1cc(-c2cnc3[nH]c(=S)n(CC4CC4)c3n2)cc(OC)c1OC [Example 127, 1-(cyclopropylmethyl)-6-(3,4,5-trimethoxyphenyl)-1H-imidazo[4,5-b]pyrazine-2(3H)-thione] | > 1000 nM | –
COc1cc(-c2cnc3[nH]c(=O)n(-c4ccc5c(ccn5C)c4)c3n2)cc(OC)c1OC [Example 41, 1-(1-methyl-1H-indol-5-yl)-6-(3,4,5-trimethoxyphenyl)-1H-imidazo[4,5-b]pyrazin-2(3H)-one] | – | 100 to 1000 nM
O=c1[nH]c2ncc(-c3ccc(O)cc3)nc2n1CC1CC1 [Example 81, 1-(cyclopropylmethyl)-6-(4-hydroxyphenyl)-1H-imidazo[4,5-b]pyrazin-2(3H)-one] | > 1000 nM | –
COc1ccc(-c2cnc3[nH]c(=O)n(-c4ccc5[nH]ccc5c4)c3n2)cc1F [Example 49, 6-(3-fluoro-4-methoxyphenyl)-1-(1H-indol-5-yl)-1H-imidazo[4,5-b]pyrazin-2(3H)-one] | > 1000 nM | –
O=c1[nH]c2ncc(-c3ccc(O)cc3)nc2n1C1CCCC1 [Example 76, 1-cyclopentyl-6-(4-hydroxyphenyl)-1H-imidazo[4,5-b]pyrazin-2(3H)-one] | – | 100 to 1000 nM
COc1ccc(-c2cnc3[nH]c(=O)n(-c4ccc5[nH]ccc5c4)c3n2)cc1N [Example 50, 6-(3-amino-4-methoxyphenyl)-1-(1H-indol-5-yl)-1H-imidazo[4,5-b]pyrazin-2(3H)-one] | – | 100 to 1000 nM
CN1CCN(Cc2cccc(-c3cnc4[nH]cc(-c5ccc6[nH]ccc6c5)c4c3)c2)CC1=O [Example 143, 4-{3-[3-(1H-indol-5-yl)-1H-pyrrolo[2,3-b]pyridin-5-yl]-benzyl}-1-methyl-piperazin-2-one] | < 100 nM | –
COc1cc(-c2cnc3[nH]cc(-c4ccc(N(C)C)nc4)c3c2)cc(OC)c1OC [Example 19, N,N-dimethyl-5-(5-(3,4,5-trimethoxyphenyl)-1H-pyrrolo[2,3-b]pyridin-3-yl)pyridin-2-amine] | < 100 nM | –
COc1cc(-c2cnc3[nH]cc(-c4ccc(C(N)=O)cc4)c3c2)cc(OC)c1OC [Example 25, 4-(5-(3,4,5-trimethoxyphenyl)-1H-pyrrolo[2,3-b]pyridin-3-yl)benzamide] | < 100 nM | –
CC(=O)Nc1ccc(-c2cnc3[nH]cc(-c4ccc5[nH]ccc5c4)c3c2)cc1 [Example 3, N-(4-(3-(1H-indol-5-yl)-1H-pyrrolo[2,3-b]pyridin-5-yl)phenyl)acetamide] | < 100 nM | –
COc1cc(-c2cnc3[nH]cc(-c4ccc(CNC(=O)Cc5ccccc5)cc4)c3c2)cc(OC)c1OC [Example 160, 2-phenyl-N-{4-[5-(3,4,5-trimethoxy-phenyl)-1H-pyrrolo[2,3-b]pyridin-3-yl]-benzyl}-acetamide] | – | 100 to 1000 nM
COc1cc(-c2cnc3[nH]c(=O)n(CC4CC4)c3n2)cc(OC)c1OC [Example 78, 1-(cyclopropylmethyl)-6-(3,4,5-trimethoxyphenyl)-1H-imidazo[4,5-b]pyrazin-2(3H)-one] | – | 100 to 1000 nM
NC(=O)c1ccc(-c2c[nH]c3ncc(-c4ccc(N)nc4)cc23)cc1 [Example 28, 4-(5-(6-aminopyridin-3-yl)-1H-pyrrolo[2,3-b]pyridin-3-yl)benzamide] | – | 100 to 1000 nM
